The values that follow come from PMC2676060 (European journal of medicinal chemistry, 2008).

The target in data set [1] is recombinant HIV-1 RT enzyme (p66/51 dimer) (Human immunodeficiency virus type 1 group M subtype B, UniProt P03366). The data set is described as follows: RT inhibition assay, poly. It is filed as biochemical. The following applies: for HIV-1 RT inhibition (in words): poly(rC)·oligo(dG) as template primer.
The conditions of data set [2]: cited from earlier work.

Regarding `COC(=O)c1cc(/C(=C/CCN2CCOC2=O)c2cc(C)c3onc(OC)c3c2)cc(C)c1OC` [Compound 5, (E)-2-Methoxy-5-[1-(3-methoxy-7-methylbenzo[d]isoxazol-5-yl)-4-(2-oxoxazolidin-3-yl)-but-1-enyl]-3-methylbenzoic acid methyl ester], in data set [1], the “HIV-1 RT inhibition (in words)” value is recorded as “much less active”. Regarding `COc1noc2c(C)cc(C(=CCCN3CCOC3=O)c3cc(C)c4onc(OC)c4c3)cc12` [Compound 7, 3-[4,4-Bis-(3-methoxy-7-methyl-benzo[d]isoxazol-5-yl)-but-3-enyl]-oxazolidin-2-one], the “HIV-1 RT inhibition (in words)” value in data set [1] was “active”. The same measure, in the same setting: for `COc1noc2c(C)cc(/C(=C\CCN3CCOC3=O)c3cccc(C#N)c3)cc12` [Compound 9, (Z)-3-[1-(3-Methoxy-7-methylbenzo[d]isoxazol-5-yl)-4-(2-oxoxazolidin-3-yl)-but-1-enyl]-benzonitrile] the value was “much less active”.

`COC(=O)CCC/C=C(\c1cc(F)cc(C(F)(F)F)c1)c1cc(C)c2onc(OC)c2c1` [Compound 1]: in data set [1], the IC50 was found to be 900 nM. For `COC(=O)CCC/C=C(/c1cc(C)c2onc(OC)c2c1)c1cc(C)c2oc(=O)n(C)c2c1` [Compound 2], in data set [2], the “stability in rat blood plasma (in words)” value is reported as “unstable”. Consider `COc1noc2c(C)cc(/C(=C\CCN3CCOC3=O)c3cc(C)c4oc(=O)n(C)c4c3)cc12` [Compound 8, (E)-5-[1-(3-Methoxy-7-methylbenzo[d]isoxazol-5-yl)-4-(2-oxoxazolidin-3-yl)-but-1-enyl]-3,7-dimethyl-3H-benzoxazol-2-one], for which, in data set [1], the “HIV-1 RT inhibition (in words)” value was “much less active”.

On to `COC(=O)c1cc(/C(=C/CCN2CCOC2=O)c2cc(C)c3onc(OC)c3c2)cc(Cl)c1OC` [Compound 6, (E)-3-Chloro-2-methoxy-5-[1-(3-methoxy-7-methyl-benzo[d]isoxazol-5-yl)-4-(2-oxoxazolidin-3-yl)-but-1-enyl]-benzoic acid methyl ester], for which the “HIV-1 RT inhibition (in words)” value in data set [1] is “much less active”. In the case of `COC(=O)CCC/C=C(\c1cc(C)c(OC)c(C(=O)OC)c1)c1cc(C)c2onc(OC)c2c1` [Compound 3, (Z)-2-Methoxy-5-[5-methoxycarbonyl-1-(3-methoxy-7-methylbenzo[d]isoxazol-5-yl)-pent-1-enyl]-3-methylbenzoic acid methyl ester], in data set [1], the IC50 came out at 910 nM.
